Laboratory results from ChEMBL document CHEMBL1201862, “PubChem BioAssay data set” (2004).
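These data come from cells grown in 96-well plates and exposed to compound for 48 hours at five concentrations. GI50 marks 50% less growth.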 Active and inactive are the calls of the source. No stated cut-off is given here; in the data, active = GI50 up to about 1.1 µM and inactive = higher.

How the values were obtained:
Experiment in all cases: inhibition of tumour cell growth, NCI panel, 48 h
[1] = test system: LXFL 529
[2] = test system: DMS-114
[3] = test system: HOP-18
[4] = test system: M19-MEL
[5] = test system: BT-549
[6] = test system: SNB-78
[7] = test system: DLD-1
[8] = test system: RXF 631

SMILES	GI50 [1]	GI50 [2]	GI50 [3]	GI50 [4]	GI50 [5]	GI50 [6]	GI50 [7]	GI50 [8]
CC(C)C(=O)CC(c1ccc(Br)cc1)N1N=C(C(C)C)CC1c1ccc(Br)cc1 (configuration not stated)	> 100 µM (inactive)	27.9 µM (inactive)	> 100 µM (inactive)	25.9 µM (inactive)	–	–	–	–
O=C1C=C(N2CC2)C(=O)C=C1N1CC1	0.159 µM (active)	–	–	–	0.348 µM (active)	0.138 µM (active)	0.117 µM (active)	–
CC(=O)OC/C=C\Cn1nc(Br)c(=O)[nH]c1=O	–	–	–	–	9.77 µM (inactive)	–	–	–
CNC(=O)SCC(NC(=O)CCC(N)C(=O)O)C(=O)NCC(=O)O (configuration not stated)	–	39 µM (inactive)	> 82.2 µM (inactive)	> 100 µM (inactive)	–	> 100 µM (inactive)	> 83 µM (inactive)	–
NC(=O)Nc1ccc(C(=O)NCCCNC(=O)c2ccc(NC(N)=O)cc2)cc1	–	–	–	–	> 100 µM (inactive)	–	–	–
C=CCN1C(=O)/C(=C/c2cccs2)N=C1SC1OC(COC(=O)c2ccccc2)C(OC(=O)c2ccccc2)C1OC(=O)c1ccccc1 (configuration not stated)	–	–	–	–	> 100 µM (inactive)	–	–	–
N#Cc1c(NC(=S)Nc2ccc(Cl)cc2)sc2c1CCCC2	–	–	–	–	> 100 µM (inactive)	–	–	–
ICC1CCCO1 (configuration not stated)	> 100 µM (inactive)	> 100 µM (inactive)	> 100 µM (inactive)	–	–	> 100 µM (inactive)	> 100 µM (inactive)	> 100 µM (inactive)
C[C@H](CN1CC(=O)NC(=O)C1)N1CC(=O)NC(=O)C1	–	0.18 µM (active)	> 100 µM (inactive)	> 100 µM (inactive)	–	> 100 µM (inactive)	> 86.5 µM (inactive)	–
CC(C)=CCc1c(C)cc2cc3c(c(O)c2c1O)C(=O)C=C(O)C3(CC=C(C)C)C/C=C(\C)CO (configuration not stated)	–	38.9 µM (inactive)	3.61 µM (inactive)	37.4 µM (inactive)	–	–	32.7 µM (inactive)	–
